This passage reports IC50 and inhibition results from ChEMBL document CHEMBL2417454, “Oxazolopyridines and thiazolopyridines as monoamine oxidase B inhibitors for the treatment of Parkinson's disease” (Bioorg Med Chem, 2013).

In test [1] the target is T1, Amine oxidase [flavin-containing] B (Homo sapiens, UniProt P27338).
T1 sequence (P27338 whole entry): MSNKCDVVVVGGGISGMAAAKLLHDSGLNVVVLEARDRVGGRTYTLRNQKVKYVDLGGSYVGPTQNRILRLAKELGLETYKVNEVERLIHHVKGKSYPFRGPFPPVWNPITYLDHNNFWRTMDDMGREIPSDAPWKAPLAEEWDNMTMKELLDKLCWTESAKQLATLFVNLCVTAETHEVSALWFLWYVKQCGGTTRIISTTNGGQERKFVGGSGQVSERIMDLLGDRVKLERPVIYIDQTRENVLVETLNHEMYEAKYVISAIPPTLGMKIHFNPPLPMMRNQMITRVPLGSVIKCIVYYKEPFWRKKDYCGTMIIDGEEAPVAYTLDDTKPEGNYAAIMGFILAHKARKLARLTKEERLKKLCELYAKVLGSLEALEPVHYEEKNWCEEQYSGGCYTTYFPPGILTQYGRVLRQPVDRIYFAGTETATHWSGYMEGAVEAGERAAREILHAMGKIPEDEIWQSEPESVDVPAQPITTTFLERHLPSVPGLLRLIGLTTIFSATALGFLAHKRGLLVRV
As to the kind of experiment: Inhibition of human recombinant MAO-B using benzylamine hydrochloride as substrate assessed as H2O2 synthesis after 1 hr by fluorescence assay.

Test [2] concerns the target T1, Amine oxidase [flavin-containing] B. As to the kind of experiment: Inhibition of human recombinant MAO-B using benzylamine hydrochloride as substrate assessed as H2O2 synthesis at 10 uM after 1 hr by fluorescence assay. The note with it: read-out: INH.

As for `Fc1ccccc1-c1nc2ccc(N3CCCCC3)nc2o1`, the concentration for half-maximal inhibition (IC50) in test [1] is 665 nM. In test [2], the inhibition at 10 µM came to 94.9%.
For `Clc1cccc(-c2nc3ccc(N4CCCCC4)nc3o2)c1`, in that order: 335 nM and 91.7%.
With `CNc1ccc2nc(-c3ccccc3)oc2n1`, the inhibition at 10 µM in test [2] was determined as 19%.
Turning to `Fc1ccc(-c2nc3ccc(N4CCCCC4)nc3o2)cc1`, in test [1], the 50% inhibitory concentration (IC50) worked out at 270 nM. Also, the inhibition at 10 µM in test [2] came out at 93.4%.
Consider `c1ccc(-c2nc3ccc(N4CCCCCC4)nc3o2)cc1`, for which the inhibition at 10 µM in test [2] is 57.9%.
For `Clc1ccc(-c2nc3ccc(N4CCCCC4)nc3s2)cc1`, the concentration for half-maximal inhibition (IC50) in test [1] worked out at 358 nM. In test [2], the inhibition at 10 µM turned out to be 84.2%.
Take `Clc1ccc(-c2nc3ccc(N4CCCCC4)nc3o2)cc1`: the 50% inhibitory concentration (IC50) in test [1] stood at 890 nM. In addition, in test [2], the inhibition at 10 µM came out at 69.8%.
On to `Fc1cccc(-c2nc3ccc(N4CCCCC4)nc3o2)c1`, for which, in test [2], the inhibition at 10 µM was determined as 89.7%.
For `Clc1ccccc1-c1nc2ccc(N3CCCCC3)nc2s1`, the half-inhibitory concentration (IC50) in test [1] came to 171 nM. Also, the inhibition at 10 µM in test [2] came to 95.1%.
Regarding `c1ccc(-c2nc3ccc(N4CCCCC4)nc3o2)cc1`, the IC50 in test [1] was 1370 nM. The inhibition at 10 µM in test [2] amounted to 86.8%.
For `Fc1ccc(-c2nc3ccc(N4CCCCC4)nc3s2)cc1`, in that order: 26.5 nM and 92.7%.
On to `c1ccc(CNc2ccc3nc(-c4ccccc4)oc3n2)cc1`, for which the inhibition at 10 µM in test [2] is 4.8%.
`c1ccc(-c2nc3ccc(NC4CCCCC4)nc3o2)cc1`: in test [1], the IC50 is 2540 nM. Moreover, the inhibition at 10 µM in test [2] turned out to be 79.1%.
As for `CN(Cc1ccccc1)c1ccc2nc(-c3ccccc3)oc2n1`, in test [2], the inhibition at 10 µM came to 3.7%.
Take `Clc1ccccc1-c1nc2ccc(N3CCCCC3)nc2o1`: in test [1], the concentration for half-maximal inhibition (IC50) worked out at 267 nM. For the same compound, in test [2], the inhibition at 10 µM was determined as 96.3%.
Taken in the same sequence, the figures for `c1ccc(-c2nc3ccc(N4CCCCC4)nc3s2)cc1` were 356 nM and 95.5%.
